Results reported in ChEMBL document CHEMBL1671792, “Conformationally constrained farnesoid X receptor (FXR) agonists: heteroaryl replacements of the naphthalene” (Bioorg Med Chem Lett, 2011).
In brackets after ≈: the same amount, converted by molar mass. Activity calls are given as the source filed them. No cut-off for these calls is given here.

What was measured:
[1] = molecular target: T1, Bile acid receptor (Homo sapiens) (UniProt Q96RI1); test: Agonist activity at human FXR LBD iexpressed in monkey CV-1 cells assessed as transactivation of luciferase reporter gene expression relative to GW 4064; type: functional, cell-based; set-up: concentration or dose not given beside the values
T1 sequence (whole entry): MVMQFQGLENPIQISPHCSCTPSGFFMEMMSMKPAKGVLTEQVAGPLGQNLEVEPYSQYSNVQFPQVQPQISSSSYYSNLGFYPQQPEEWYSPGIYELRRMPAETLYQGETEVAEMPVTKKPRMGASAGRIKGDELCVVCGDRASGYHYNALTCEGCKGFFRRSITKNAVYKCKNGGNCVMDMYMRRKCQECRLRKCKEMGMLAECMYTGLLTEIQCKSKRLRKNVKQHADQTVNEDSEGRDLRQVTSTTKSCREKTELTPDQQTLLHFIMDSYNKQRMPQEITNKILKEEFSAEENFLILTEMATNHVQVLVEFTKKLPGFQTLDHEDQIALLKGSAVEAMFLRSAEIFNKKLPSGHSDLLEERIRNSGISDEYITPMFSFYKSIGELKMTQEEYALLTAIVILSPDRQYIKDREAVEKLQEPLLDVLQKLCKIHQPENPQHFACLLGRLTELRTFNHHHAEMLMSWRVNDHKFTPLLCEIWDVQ

[2] = molecular target: T1, Bile acid receptor (Homo sapiens); test: Agonist activity at human FXR LBD assessed as SRC1 peptide recruitment by FRET assay relative to GW 4064; type: functional
Bile acid receptor [3] = molecular target: T2, Bile acid receptor (Homo sapiens, UniProt Q96RI1); test: Agonist activity at human FXR LBD assessed as SRC1 peptide recruitment by FRET assay; type: functional
T2 sequence (Q96RI1 whole entry): T1 sequence (whole entry)

Bile acid receptor [4] = molecular target: T2, Bile acid receptor; test: Agonist activity at human FXR LBD iexpressed in monkey CV-1 cells assessed as transactivation of luciferase reporter gene expression; type: functional, cell-based
Homo sapiens [5] = species on record: Homo sapiens; test: Selectivity ratio of EC50 for human FXR to EC50 for human LXRbeta
Homo sapiens [6] = species on record: Homo sapiens; test: Selectivity ratio of EC50 for human FXR to EC50 for human PXR
[7] = Solubility of compound in fasted state-simulated intestinal fluid at pH 6.5; type: physicochemical; conditions: simulated gi fluid
Homo sapiens [8] = species on record: Homo sapiens; test: Selectivity ratio of EC50 for human FXR to EC50 for human LXRalpha
Cynomolgus monkey = test: Dose normalized AUC in orally dosed cynomolgus monkey; type: ADME, organism-based, Macaca fascicularis; conditions: in vivo, po
Rattus norvegicus = test: Dose normalized AUC in orally dosed rat; type: ADME, organism-based; conditions: in vivo, po
Homo sapiens [9] = species on record: Homo sapiens; test: Selectivity ratio of EC50 for human FXR to EC50 for human PPARgamma
Homo sapiens [10] = species on record: Homo sapiens; test: Selectivity ratio of EC50 for human FXR to EC50 for human LRH
Homo sapiens [11] = species on record: Homo sapiens; test: Selectivity ratio of EC50 for human FXR to EC50 for human RXRalpha
Homo sapiens [12] = species on record: Homo sapiens; test: Selectivity ratio of EC50 for human FXR to EC50 for human PPARalpha
Homo sapiens [13] = species on record: Homo sapiens; test: Selectivity ratio of EC50 for human FXR to EC50 for human PPARdelta
Homo sapiens [14] = species on record: Homo sapiens; test: Selectivity ratio of EC50 for human FXR to EC50 for human RORalpha
[15] = molecular target: T1, Bile acid receptor (Homo sapiens); test: Binding affinity to human FXR by X-ray crystallography
[16] = Half life in iv dosed cynomolgus monkey; type: ADME, organism-based, Macaca fascicularis; conditions: in vivo
[17] = Clearance in iv dosed mouse; type: ADME, organism-based; conditions: in vivo
[18] = Oral bioavailability in Beagle dog; type: ADME, organism-based, Canis lupus familiaris; conditions: in vivo
[19] = Oral bioavailability in mouse; type: ADME, organism-based; conditions: in vivo
[20] = Oral bioavailability in cynomolgus monkey; type: ADME, organism-based, Macaca fascicularis; conditions: in vivo
[21] = Clearance in iv dosed rat; type: ADME, organism-based; conditions: in vivo
Canis familiaris = test: Dose normalized AUC in orally dosed Beagle dog; type: ADME, organism-based, Canis lupus familiaris; conditions: in vivo, po
[22] = Half life in iv dosed Beagle dog; type: ADME, organism-based, Canis lupus familiaris; conditions: in vivo
[23] = Half life in iv dosed mouse; type: ADME, organism-based; conditions: in vivo
[24] = Half life in iv dosed rat; type: ADME, organism-based; conditions: in vivo
Mus musculus = test: Dose normalized AUC in orally dosed mouse; type: ADME, organism-based; conditions: in vivo, po
[25] = Volume of distribution at steady state in iv dosed cynomolgus monkey; type: ADME, organism-based, Macaca fascicularis; conditions: in vivo, read-out: Vdss
[26] = Clearance in iv dosed Beagle dog; type: ADME, organism-based, Canis lupus familiaris; conditions: in vivo
[27] = Volume of distribution at steady state in iv dosed Beagle dog; type: ADME, organism-based, Canis lupus familiaris; conditions: in vivo, read-out: Vdss
[28] = Volume of distribution at steady state in iv dosed mouse; type: ADME, organism-based; conditions: in vivo, read-out: Vdss
[29] = Oral bioavailability in rat; type: ADME, organism-based; conditions: in vivo
[30] = Clearance in iv dosed cynomolgus monkey; type: ADME, organism-based, Macaca fascicularis; conditions: in vivo
[31] = Volume of distribution at steady state in iv dosed rat; type: ADME, organism-based; conditions: in vivo, read-out: Vdss

CC(C)c1onc(-c2c(Cl)cccc2Cl)c1COc1ccc(-c2ccc3c(C(=O)O)ccnc3c2)cc1
Activity [1]: 85% | Activity [2]: 99% | EC50 (Bile acid receptor [3]): 0.34 µM | EC50 (Bile acid receptor [4]): 0.56 µM

CC(C)c1onc(-c2c(Cl)cccc2Cl)c1COc1ccc(-c2ccc3c(C(=O)O)cccc3c2)cc1
Activity [1]: 104% | Ratio EC50 (Homo sapiens [5]): 100 | Activity [2]: 134% | Ratio EC50 (Homo sapiens [6]): 100 | solubility [7]: 1 ng/mL (≈ 1.88 nM) | Ratio EC50 (Homo sapiens [8]): 100 | AUC (Cynomolgus monkey): 1130 ng·kg·h/mg/mL | AUC (Rattus norvegicus): 23 ng·kg·h/mg/mL | Ratio EC50 (Homo sapiens [9]): 100 | Ratio EC50 (Homo sapiens [10]): 100 | Ratio EC50 (Homo sapiens [11]): 100 | Ratio EC50 (Homo sapiens [12]): 100 | Ratio EC50 (Homo sapiens [13]): 100 | Ratio EC50 (Homo sapiens [14]): 100 | Activity [15]: Active

CC(C)c1onc(-c2c(Cl)cccc2Cl)c1COc1ccc(-c2ccc3nc(C(=O)O)nnc3c2)cc1
Activity [2]: 100% | EC50 (Bile acid receptor [3]): 0.36 µM | EC50 (Bile acid receptor [4]): > 10 µM

CC(C)c1onc(-c2c(Cl)cccc2Cl)c1COc1ccc(/C=C/c2cccc(C(=O)O)c2)c(Cl)c1
Activity [15]: Active

CC(C)COc1cc(C(=O)O)nc2ccc(-c3ccc(OCc4c(-c5c(Cl)cccc5Cl)noc4C(C)C)cc3)cc12
Activity [1]: 93% | Activity [2]: 105% | EC50 (Bile acid receptor [3]): 0.078 µM | EC50 (Bile acid receptor [4]): 0.081 µM

COc1cc(C(=O)O)nc2ccc(-c3ccc(OCc4c(-c5c(Cl)cccc5Cl)noc4C(C)C)cc3)cc12
Activity [1]: 107% | Activity [2]: 113% | EC50 (Bile acid receptor [3]): 0.058 µM | EC50 (Bile acid receptor [4]): 0.017 µM

Cc1cc(C(=O)O)nc2ccc(-c3ccc(OCc4c(-c5c(Cl)cccc5Cl)noc4C(C)C)cc3)cc12
Activity [1]: 107% | Activity [2]: 108% | EC50 (Bile acid receptor [3]): 0.081 µM | EC50 (Bile acid receptor [4]): 0.024 µM

CCCOc1cc(C(=O)O)nc2ccc(-c3ccc(OCc4c(-c5c(Cl)cccc5Cl)noc4C(C)C)cc3)cc12
Activity [1]: 93% | Activity [2]: 113% | EC50 (Bile acid receptor [3]): 0.059 µM | EC50 (Bile acid receptor [4]): 0.022 µM

CCOc1cc(C(=O)O)nc2ccc(-c3ccc(OCc4c(-c5c(Cl)cccc5Cl)noc4C(C)C)cc3)cc12
Activity [1]: 84% | Activity [2]: 99% | EC50 (Bile acid receptor [3]): 0.052 µM | EC50 (Bile acid receptor [4]): 0.014 µM

Cc1cc2cc(-c3ccc(OCc4c(-c5c(Cl)cccc5Cl)noc4C(C)C)cc3)ccc2nc1C(=O)O
Activity [1]: 101% | Activity [2]: 107% | EC50 (Bile acid receptor [3]): 0.14 µM | EC50 (Bile acid receptor [4]): 0.038 µM

CC(C)c1onc(-c2c(Cl)cccc2Cl)c1COc1ccc(-c2cc3ccc(C(=O)O)nc3cc2F)cc1
Activity [1]: 107% | Activity [2]: 115% | EC50 (Bile acid receptor [3]): 0.24 µM | EC50 (Bile acid receptor [4]): 0.11 µM

CC(C)c1onc(-c2c(Cl)cccc2Cl)c1COc1ccc(-c2ccc3nc(C(=O)O)cnc3c2)cc1
Activity [1]: 109% | Activity [2]: 96% | EC50 (Bile acid receptor [3]): 0.15 µM | EC50 (Bile acid receptor [4]): 0.69 µM

CC(C)c1onc(-c2c(Cl)cccc2Cl)c1COc1ccc(-c2ccc3cc(C(=O)O)cnc3c2)cc1
Activity [1]: 88% | Activity [2]: 87% | EC50 (Bile acid receptor [3]): 0.2 µM | EC50 (Bile acid receptor [4]): 0.26 µM

Cc1cc(-c2ccc3nc(C(=O)O)ccc3c2)ccc1OCc1c(-c2c(Cl)cccc2Cl)noc1C(C)C
Activity [1]: 94% | Activity [2]: 100% | EC50 (Bile acid receptor [3]): 0.11 µM | EC50 (Bile acid receptor [4]): 0.044 µM

CC(C)c1onc(-c2c(Cl)cccc2Cl)c1COc1ccc(-c2ccc3cc(C(=O)O)ncc3c2)cc1
half-life [16]: 10.3 h | Activity [1]: 86% | clearance [17]: 1.74 L/h/kg | bioavailability [18]: 15% | bioavailability [19]: 6.3% | bioavailability [20]: 2.5% | clearance [21]: 1.08 L/h/kg | AUC (Canis familiaris): 320 ng·kg·h/mg/mL | half-life [22]: 3.83 h | Activity [2]: 83% | half-life [23]: 4.17 h | half-life [24]: 1.47 h | AUC (Mus musculus): 36 ng·kg·h/mg/mL | AUC (Cynomolgus monkey): 40 ng·kg·h/mg/mL | Vd [25]: 3.1 L/kg | clearance [26]: 0.492 L/h/kg | EC50 (Bile acid receptor [3]): 0.12 µM | AUC (Rattus norvegicus): 300 ng·kg·h/mg/mL | Vd [27]: 2 L/kg | EC50 (Bile acid receptor [4]): 0.077 µM | Vd [28]: 5.1 L/kg | bioavailability [29]: 30% | clearance [30]: 0.66 L/h/kg | Vd [31]: 1.8 L/kg | Activity [15]: Active

CC(C)c1onc(-c2c(Cl)cccc2Cl)c1COc1ccc(-c2ccc3nc(C(=O)O)cc(O)c3c2)cc1
Activity [2]: 91% | EC50 (Bile acid receptor [3]): 0.051 µM | EC50 (Bile acid receptor [4]): > 10 µM

Cc1nc(C(=O)O)nc2ccc(-c3ccc(OCc4c(-c5c(Cl)cccc5Cl)noc4C(C)C)cc3)cc12
Activity [1]: 127% | Activity [2]: 102% | EC50 (Bile acid receptor [3]): 0.14 µM | EC50 (Bile acid receptor [4]): 1 µM

CCc1cc(C(=O)O)nc2ccc(-c3ccc(OCc4c(-c5c(Cl)cccc5Cl)noc4C(C)C)cc3)cc12
Activity [1]: 109% | Activity [2]: 106% | EC50 (Bile acid receptor [3]): 0.075 µM | EC50 (Bile acid receptor [4]): 0.032 µM

Cc1cc(OCc2c(-c3c(Cl)cccc3Cl)noc2C(C)C)ccc1-c1ccc2nc(C(=O)O)ccc2c1
Activity [1]: 91% | Activity [2]: 87% | EC50 (Bile acid receptor [3]): 0.25 µM | EC50 (Bile acid receptor [4]): 0.052 µM

CC(C)c1onc(-c2c(Cl)cccc2Cl)c1COc1ccc(-c2ccc3c(C(=O)O)nccc3c2)cc1
Activity [1]: 102% | Activity [2]: 92% | EC50 (Bile acid receptor [3]): 0.38 µM | EC50 (Bile acid receptor [4]): 0.19 µM

CC(C)Oc1cc(C(=O)O)nc2ccc(-c3ccc(OCc4c(-c5c(Cl)cccc5Cl)noc4C(C)C)cc3)cc12
Activity [1]: 103% | Activity [2]: 113% | EC50 (Bile acid receptor [3]): 0.04 µM | EC50 (Bile acid receptor [4]): 0.014 µM
